Laboratory results published in patent publication US11766478B2, “Methods for enhancing antigen-specific immune responses” (priority 2015, dated 2023).

System: TC-1 tumors
Assay: In vivo tumor treatment experiment, TC-1 tumor-bearing mice (tumor volume, survival)
Parameters: species or system C57BL/6 mice
Settings: combinatorial treatment with cisplatin; compared to cisplatin alone
Experimental: Left panel is representative flow cytometry analysis. […] IgG antibody was used as a control. […] Left panel is representative flow cytometry.
For in vivo tumor treatment experiment using only protein, 1×10^5 TC-1 cells were injected subcutaneously into C57BL/6 mice (10 per group). After 3 days, 100 μg of each protein was injected intravenously three times with 3 day intervals. Mice were monitored for tumor growth by palpation and inspection twice a week. For in vivo combined tumor treatment experiments, 1×10^5 TC-1 cells or 5×10^5 CT 26 cells were subcutaneously injected into C57BL/6 mice (10 per group) or BALB/c mice. After 5 days, cisplatin (5 mg/kg) or saline (control) was intraperitoneally injected two times at a 3 day interval. 6 days after tumor challenge, mice received 100 μg of protein each, intravenously injected three times with 3 day intervals.

Substance: AnnexinV: Annexin V protein alone, purified from E. coli, used as control
- therapeutic anti-tumor effect in TC-1 tumor bearing mice: did not generate a significantly better therapeutic anti-tumor effect
